Assay results reported in PMC7845594, “Novel Immune Modulators Enhance Caenorhabditis elegans Resistance to Multiple Pathogens” (mSphere, 2021).
Where “and” joins values, the source holds several entries; their conditions need not be identical. Equal values may be shown once.

Tests used:
[1] = system: glp-4(bn2) worms exposed to methicillin-resistant S. aureus strain MRSA131; assay: S. aureus infection assay (liquid); type: in vivo, Caenorhabditis elegans; conditions: glp-4(bn2) worms, 96 h; ± 95% confidence interval
[2] = system: glp-4(bn2) worms; assay: Longevity (life span) assay; conditions: 50 μM in NGM, E. coli OP50, Fig 3A
[3] = system: C. elegans host defense pathway genes; assay: nanoString expression of 115 immune- and stress-responsive genes; conditions: 100 μM LK molecules, 16 h
In short: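 Wild-type young adult C. elegans (2,000 per condition) exposed to 100 μM LK molecules or DMSO control in S Basal medium for 16 h. RNA purified and expression of 115 immune- and stress-responsive genes quantified by nanoString; two biological replicates per condition.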

## CNC(=O)Oc1c(Br)cc2sc(=O)oc2c1Br [LK34]
[1]
  S. aureus EC: 42.7 µM and 42.7 ± 11.4 µM
[2]
  TD50 (time to 50% death), life span: 10.1 days
[3]
  B0024.4 expression, induction: 0.79 fold
  C02B4.2 nhr-17 expression, induction: 1.60 fold
  C03G6.15 cyp-35A2 expression, induction: 2.32 fold
  C06B3.3 cyp-35C1 expression, induction: 2.40 fold
  C06B3.7 expression, induction: 2.34 fold
  C07G3.2 irg-1 expression, induction: 2.14 fold
  C12C8.1 hsp-70 expression, induction: 2.02 fold
  C15F1.7 sod-1 expression, induction: 2.23 fold
  C29F7.2 expression, induction: 1.42 fold
  C31A11.5 oac-6 expression, induction: 3.81 fold
  C32D5.12 expression, induction: 2.84 fold
  C32H11.1 expression, induction: 5.22 fold
  C32H11.3 expression, induction: 4.04 fold
  C34G6.4 pgp-2 expression, induction: 1.78 fold
  C37C3.10 expression, induction: 2.56 fold
  C37H5.8 hsp-6 expression, induction: 2.28 fold
  C49G7.5 irg-2 expression, induction: 2.61 fold
  F08F8.5 numr-1 expression, induction: 3.73 fold
  F08H9.4 expression, induction: 2.08 fold
  F14F9.3 expression, induction: 2.72 fold
  F22B5.4 expression, induction: 0.86 fold
  F22H10.2 expression, induction: 1.72 fold
  F26A3.4 expression, induction: 1.09 fold
  F35E8.11 cdr-1 expression, induction: 3.15 fold
  F35G2.4 phy-2 expression, induction: 1.71 fold
  F37B12.2 gcs-1 expression, induction: 4.32 fold
  F43E2.8 hsp-4 expression, induction: 2.24 fold
  F44E5.5 expression, induction: 1.49 fold
  F49F1.6 expression, induction: 1.85 fold
  F49F1.7 expression, induction: 3.64 fold
  F49H6.13 expression, induction: 2.55 fold
  F54B8.4 expression, induction: 1.78 fold
  F55G11.2 expression, induction: 1.39 fold
  F59A7.1 clec-206 expression, induction: 2.12 fold
  F59B10.4 expression, induction: 1.89 fold
  H12D21.1 nspa-1 expression, induction: 39.17 fold
  H23N18.1 ugt-13 expression, induction: 2.95 fold
  H23N18.3 ugt-8 expression, induction: 5.59 fold
  K05B2.4 expression, induction: 3.62 fold
  K07C6.3 cyp-35B2 expression, induction: 4.00 fold
  K07G6.4 cyp-35B1 expression, induction: 2.31 fold
  K08F4.7 gst-4 expression, induction: 9.69 fold
  K09A9.1 nipi-3 expression, induction: 1.52 fold
  K09D9.2 cyp-35A3 expression, induction: 3.13 fold
  K10D11.2 expression, induction: 1.97 fold
  K10G4.3 expression, induction: 2.74 fold
  R03D7.6 gst-5 expression, induction: 9.49 fold
  R08H2.1 dhs-23 expression, induction: 3.44 fold
  R10E8.3 expression, induction: 2.60 fold
  T19D12.3 expression, induction: 3.00 fold
  T19H12.1 ugt-9 expression, induction: 2.48 fold
  T21E8.1 pgp-6 expression, induction: 2.62 fold
  T22B7.3 expression, induction: 1.84 fold
  T24C4.4 expression, induction: 2.67 fold
  T24E12.5 expression, induction: 4.33 fold
  T27E4.3 hsp-16.48 expression, induction: 1.73 fold
  T27E4.8 hsp-16.1 expression, induction: 1.82 fold
  T27F6.8 expression, induction: 1.45 fold
  T28C12.4 expression, induction: 1.59 fold
  W02D9.10 expression, induction: 1.15 fold
  Y22D7AL.5 hsp-60 expression, induction: 1.77 fold
  Y38E10A.15 nspe-7 expression, induction: 2.14 fold
  Y46H3A.2 hsp-16.41 expression, induction: 2.00 fold
  Y46H3A.3 hsp-16.2 expression, induction: 1.72 fold
  Y56A3A.33 expression, induction: 1.77 fold
  Y58A7A.5 expression, induction: 3.10 fold
  ZC376.7 atfs-1 expression, induction: 1.86 fold
  ZC443.6 ugt-16 expression, induction: 2.76 fold
  ZK697.6 gst-21 expression, induction: 2.66 fold
